Laboratory results taken from BindingDB's records for doi:10.1126/science.2551039 (UniversitÄT Heidelberg, 1989).
Values joined by “and” are separate entries in the source; they are usually repeats but may differ in a detail not shown here. Identical values can stand only once.

Legend:
[1] = target: T1, Gamma-aminobutyric acid receptor subunit alpha-2 (Homo sapiens, UniProt P47869)
T1 sequence (P47869 whole entry): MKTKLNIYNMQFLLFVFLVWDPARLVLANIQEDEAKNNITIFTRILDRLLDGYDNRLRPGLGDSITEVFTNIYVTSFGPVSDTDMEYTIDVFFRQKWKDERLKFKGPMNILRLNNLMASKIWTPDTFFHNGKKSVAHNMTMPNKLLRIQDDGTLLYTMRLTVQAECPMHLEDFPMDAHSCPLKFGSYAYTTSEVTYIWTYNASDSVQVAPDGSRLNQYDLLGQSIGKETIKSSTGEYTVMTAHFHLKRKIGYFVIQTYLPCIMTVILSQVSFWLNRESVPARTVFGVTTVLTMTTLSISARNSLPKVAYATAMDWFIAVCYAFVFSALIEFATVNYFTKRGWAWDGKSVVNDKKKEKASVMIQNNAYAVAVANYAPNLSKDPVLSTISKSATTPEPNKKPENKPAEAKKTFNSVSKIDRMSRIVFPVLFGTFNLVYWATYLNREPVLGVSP

[2] = target: T2, Gamma-aminobutyric acid receptor subunit alpha-3 (Homo sapiens, UniProt P34903)
T2 sequence (P34903 whole entry): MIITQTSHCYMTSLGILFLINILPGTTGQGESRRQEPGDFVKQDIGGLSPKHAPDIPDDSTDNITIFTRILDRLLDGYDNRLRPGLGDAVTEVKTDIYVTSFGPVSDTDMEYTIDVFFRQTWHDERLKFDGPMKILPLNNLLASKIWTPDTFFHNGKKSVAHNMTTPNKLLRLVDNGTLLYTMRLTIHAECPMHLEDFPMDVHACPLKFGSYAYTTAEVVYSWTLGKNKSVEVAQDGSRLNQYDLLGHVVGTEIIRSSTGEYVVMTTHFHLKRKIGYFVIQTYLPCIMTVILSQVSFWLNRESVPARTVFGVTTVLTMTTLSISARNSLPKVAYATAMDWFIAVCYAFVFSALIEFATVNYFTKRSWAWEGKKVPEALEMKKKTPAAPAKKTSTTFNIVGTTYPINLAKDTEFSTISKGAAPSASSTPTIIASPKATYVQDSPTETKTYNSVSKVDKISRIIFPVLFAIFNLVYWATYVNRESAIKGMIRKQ

[3] = target: T3, Gamma-aminobutyric acid receptor subunit alpha-1 (Homo sapiens, UniProt P14867)
T3 sequence (P14867 whole entry): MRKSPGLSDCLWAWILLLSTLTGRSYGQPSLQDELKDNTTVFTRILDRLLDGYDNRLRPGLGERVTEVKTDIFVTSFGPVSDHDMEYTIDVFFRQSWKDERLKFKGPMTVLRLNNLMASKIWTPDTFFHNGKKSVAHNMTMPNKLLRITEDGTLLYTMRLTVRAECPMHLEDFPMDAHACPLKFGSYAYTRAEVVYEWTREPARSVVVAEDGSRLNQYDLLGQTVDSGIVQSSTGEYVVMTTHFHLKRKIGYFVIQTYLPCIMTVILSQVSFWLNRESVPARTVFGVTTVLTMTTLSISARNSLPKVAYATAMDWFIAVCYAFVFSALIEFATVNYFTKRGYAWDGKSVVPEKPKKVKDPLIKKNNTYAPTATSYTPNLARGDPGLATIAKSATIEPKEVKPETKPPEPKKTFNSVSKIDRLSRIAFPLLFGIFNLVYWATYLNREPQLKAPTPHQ

SMILES: Cc1nnc2ccc(-c3cccc(C(F)(F)F)c3)nn12
- Ki [1]: 2000 nM and 1740 nM
- Ki [2]: 1790 nM and 1620 nM
- Ki [3]: 405 nM and 108 nM

SMILES: COC(=O)c1cc2c(cn1)[nH]c1ccccc12
- Ki [1]: 2.9 nM
- Ki [2]: 4.1 nM
- Ki [3]: 0.78 nM

SMILES: O=C1CN=C(c2ccccc2Cl)c2cc([N+](=O)[O-])ccc2N1 [5-(2-chlorophenyl)-7-nitro-1,3-dihydro-2H-1,4-benzodiazepin-2-one]
- Ki [1]: 1.7 nM
- Ki [2]: 2 nM
- Ki [3]: 1.27 nM

SMILES: O=C1CN=C(c2ccccc2F)c2cc(Cl)ccc2N1CC(F)(F)F [NSC_93250]
- Ki [1]: 236 nM
- Ki [2]: 205 nM

SMILES: CCc1c(C(=O)OC)ncc2[nH]c3cc(OC)c(OC)cc3c12 [NSC_104999]
- Ki [1]: 14.4 nM
- Ki [2]: 10.6 nM
- Ki [3]: 5.3 nM
